From publication PMC4479448, “Delivery of Topically Applied Calpain Inhibitory Peptide to the Posterior Segment of the Rat Eye” (PLoS ONE, 2015)
Where a SMILES comes first, the peptide text is derived from it.

Key:
[1] = rat, in vivo; cited from earlier work
[2] = system: photoreceptors; settings: topical instillation of 1 mM eye drops, rhodopsin P23H transgenic rats; cited from earlier work
Excerpt: Every effort was taken to minimize suffering. Before the rat eyes ... || Calpains are members of the Ca^2+-activated cysteine proteinases and play important roles in various physiological and pathological pathways, such as regulating signal transductions, the cell cycle, cell adhesion, gene expression, and cell death.

[3] = 1 mM eye drops twice a day for 7 days, adult female SD rats
Procedure: We performed topical instillation (20 μl) of 1 mM Tat-μCL dissolved in a sterile saline solution (pH 7.4) twice a day (9 a.m. and 5 p.m.) for 7 days in both eyes of adult female SD rats (3-month-old, weighing 350–400g) without anesthesia. […] Topical application was performed in home cages using a micropipette tip with residual liquid around the eyelids wiped off by a cotton swab. Every effort was taken to minimize suffering. Before the rat eyes were enucleated, rats were euthanized with inhalation of carbon dioxide. […] At each time point, 6 rats were examined, with 3 out of the 6 right eyes used for the immunohistochemistry and all of the left eyes used for the biochemical analyses. As a control, 3 rats were topically administered sterile saline for bilaterally using the same methods described above. Animals were randomly allocated into experimental or control group. Every effort was taken to reduce the number of animal used.

[4] = Immunohistochemical distribution of topically instilled peptide in and around the eye (anti-HIV1 tat antibody); assay type: in vivo, Sprague-Dawley rats; settings: for distribution of topically instilled peptide (immunoreactivity): n = 3 eyes (3 rats)
Procedure: (§1) Every effort was taken to minimize suffering. […] Animals were randomly allocated into experimental or control group.
Distribution of the peptide was analyzed by immune-positive reactions observed in and around the rat eyes. Immunohistochemical experiments were performed in line with our previously reported method. Briefly, rats were euthanized after the final eye drop instillation by inhalation of carbon dioxide at 1, 3 and 6 h. Eyes were immediately enucleated after euthanasia. For the immunohistochemistry, eyes were fixed in 4% paraformaldehyde in phosphate-buffered saline (PBS), pH 7.4, for 20 min at room temperature. Eyes were then placed in the fixative overnight at 4°C. Specimens were cryoprotected for 4 h in 10% then 20% sucrose in PBS, and then frozen in OCT compound. […] The sections were rinsed in PBS and blocked with 1% skim milk in PBS containing 0.05% Tween (PBS-T) for 2 h at room temperature. Sections were incubated overnight at 4°C with the mouse monoclonal antibody raised against HIV1 tat (ab63957, 1:200, Abcam, Cambridge, UK) diluted in 1% skim milk in PBS-T as the primary antibody. Sections were then washed with PBS-T and incubated with tetramethylrhodamine isothiocyanate isomer R (TRITC)-conjugated rabbit anti-mouse IgG (R0270, 1:200, Dako, Glostrup, Denmark) overnight at 4°C. Sections were washed with PBS-T and nuclei were counterstained with 4’ 6-diamidino-2-phenylindole (DAPI). Immunofluorescent images were obtained by laser confocal microscopy (FV1000-D; Olympus, Tokyo, Japan).

[5] = Sandwich ELISA quantification of topically instilled peptide in retinal extract; assay type: in vivo, Sprague-Dawley rats; settings: for roughly equivalent concentration of the peptide in the intracellular space: converted from ELISA value; for concentration of the Tat-μCL in the retina: 1 mM, 20 μl eye drops twice a day for 7 days, whole retina extract, sandwich ELISA, average ± SD, n = 6 eyes (6 rats)
Procedure: as §1
The amount of the peptide delivered to the retina was quantified by sandwich ELISA as per a previously reported method. In this procedure, we first added 50 μl of rabbit polyclonal anti-HIV1 tat antibody (1:2000, ab43014, Abcam) diluted with 0.05 M carbonate-bicarbonate buffer, pH 9.6, to 96-well immunoplates (Nunc, Roskilde, Denmark). After incubating the plates overnight at 4°C, the plates were washed three times with PBS-T, and then incubated with PBS-T containing 10% bovine serum albumin (BSA) at 37°C for 2 h. Subsequently, we then washed the plates with PBS and incubated the plates with 50 μl of retinal extract or standard peptide (100 amol, 1 fmol, 10 fmol, 100 fmol, 1 pmol, 10 pmol, 100 pmol and 1 nmol Tat-μCL) diluted with PBS-T containing 10% BSA at 37°C for 2 h. The retinal extract was obtained by sonication and gradual centrifugations at 600×g for 5 min, 4,500×g for 10 min, and 20,000×g for 20 min. The supernatant of the final centrifugation was used as the retinal extract. The protein concentration was measured by the Bradford’s assay with bovine serum albumin used as the standard. After washing the plate three times with PBS-T, the plates were incubated with 50 μl of mouse monoclonal anti-HIV1 tat antibody (1:1000, ab63957, Abcam) diluted with PBS-T containing 10% BSA at 37°C for 2 h. Subsequently, the plates were then washed three times with PBS-T and incubated with horse radish peroxidase (HRP)-conjugated rabbit anti-mouse IgG (1:1000) diluted with PBS-T containing 10% BSA at 37°C for 2 h. After incubation, the plates were washed three times with PBS-T and then once with distilled water. The reaction was performed by incubating the plates with 50 μl of citrate-phosphate buffer, pH 5.0, containing 0.04% o-phenylenediamine and 0.006% hydrogen peroxide. Color development was inhibited by the addition of 50 μl of 2.4 M sulfuric acid. Absorbance was determined at 492 nm.
All statistical analyses were conducted using the SPSS version 22 software program (IBM, Armonk, NY). A one-way ANOVA was used to statistically compare the results between multiple groups. And then, as a post hoc analysis, a Dunnett T3 test was used to determine significance between the two groups. In the present study, P < 0.05 was considered statistically significant. Experiments were performed in triplicate to confirm the reproducibility.

Compound | time of peak in the retina after eye drop application [1] [h] | adverse effects [2] | adverse effects [3] | time after final application of most prominent immunoreactivity ([4]; anterior segment tissues, examined at 1 and 3 h) [h] | distribution of topically instilled peptide (immunoreactivity) ([4]; anterior segment) | time after final instillation of most prevalent immunoreactivity ([4]; optic disc area, examined at 1, 3 and 6 h) [h] | distribution of topically instilled peptide (immunoreactivity) ([4]; optic disc area) | time after final application of most abundant immunoreactivity ([4]; posterior segment, examined at 1, 3 and 6 h) [h] | distribution of topically instilled peptide (immunoreactivity) ([4]; posterior segment) | roughly equivalent concentration of the peptide in the intracellular space ([5]; 1 h after final eye drops) [µM] | concentration of the Tat-μCL in the retina ([5]; 1 h after final instillation) [pg/μg protein] | roughly equivalent concentration of the peptide in the intracellular space ([5]; 3 h after final eye drops) [µM] | concentration of the Tat-μCL in the retina ([5]; 3 h after final instillation) [pg/μg protein] | roughly equivalent concentration of the peptide in the intracellular space ([5]; 6 h after final eye drops) [µM] | concentration of the Tat-μCL in the retina ([5]; 6 h after final instillation) [pg/μg protein] | time for which sufficient concentration (> IC50) is maintained in the rat retina ([5]; after final application of 1 mM eye drops) | half-life of Tat-μCL in the rat retina ([5]; estimated from ELISA results (Fig 4), topical 1 mM eye drops)
nerve growth factor | 6 |  |  |  |  |  |  |  |  |  |  |  |  |  |  |  | 
CC(C)C[C@H](NC(=O)[C@H](C)NC(=O)[C@H](CC(=O)O)NC(=O)[C@@H]1CCCN1C(=O)[C@H](CCC(N)=O)NC(=O)[C@@H]1CCCN1C(=O)[C@@H]1CCCN1C(=O)[C@H](CCCNC(=N)N)NC(=O)[C@H](CCCNC(=N)N)NC(=O)[C@H](CCCNC(=N)N)NC(=O)[C@H](CCC(N)=O)NC(=O)[C@H](CCCNC(=N)N)NC(=O)[C@H](CCCNC(=N)N)NC(=O)[C@H](CCCCN)NC(=O)[C@H](CCCCN)NC(=O)[C@H](CCCNC(=N)N)NC(=O)CN)C(=O)N[C@@H](CCCCN)C(=O)N[C@@H](CO)C(=O)N[C@@H](CCCNC(=N)N)C(=O)N[C@H](C(=O)N[C@@H](CC(C)C)C(=O)N[C@@H](CCCNC(=N)N)C(=O)O)[C@@H](C)O [Tat-μCL] (H-GRKKRRQRRRPPQPDALKSRTLR-OH) |  | without causing any adverse effects | without any adverse effects | 1 | diffusely distributed in the various tissues including the cornea, sclera, iris, ciliary body, choroid and retinal pigment epithelium (RPE) | 1 | detected in the optic nerve, optic nerve sheath, optic disc, all layers of the retina, and the retrobulbar connective tissues | 1 | diffusely distributed throughout the retina, including the photoreceptor outer segments, outer nuclear layer, inner nuclear layer, and ganglion cell layer | ~4.48 | 15.3 | ~1.70 | 5.8 | ~0.29 | 1.0 | at least 6 h | approximately 2.6 h
